In ChEMBL document CHEMBL2028040, “Malaria Box”:

Assays:
Plasmodium falciparum [1] = test: MMV: Inhibition of Plasmodium falciparum 3D7 at 5uM compound concentration.; format: functional
Plasmodium falciparum [2] = test: MMV: Inhibition of Plasmodium falciparum 3D7 (EC50).; format: functional, organism-based
Plasmodium falciparum [3] = test: MMV: Inhibition of Plasmodium falciparum K1 (EC50).; format: functional, organism-based
Trypanosoma cruzi = test: MMV: Inhibition of Trypanosoma cruzi (Tulahuen C4 LacZ) (Chagas in vitro).; format: functional, organism-based
[4] = tested on: Trypanosoma brucei brucei; test: MMV: Inhibition of Trypanosoma brucei brucei (Squib 427) (HAT in vitro).; format: functional, organism-based
[5] = tested on: Trypanosoma brucei rhodesiense; test: MMV: Inhibition of Trypanosoma brucei rhodesiense (STIB 900) (HAT in vitro).; format: functional, organism-based
Leishmania infantum = test: MMV: Inhibition of Leishmania infantum (MHOM/MA/BE/67) in vitro.; format: functional, organism-based
[6] = MMV: Cytotoxicity against human fibroblasts (MRC-5) cells.; conditions: MRC-5 cells (human fibroblasts)

SMILES	EC50 (Plasmodium falciparum [2]) [nM]	EC50 (Plasmodium falciparum [3]) [nM]	IC50 (Trypanosoma cruzi) [µM]	IC50 [4] [µM]	IC50 [5] [µM]	IC50 (Leishmania infantum) [µM]	inhibition at 5 µM (Plasmodium falciparum [1]) [%]	IC50 [6] [µM]
CCOc1ccc2c(c1)CN(Cc1ccc(Cl)cc1)CO2	439	184	> 32	7	11	> 32	97	> 32
CCOc1cc(Cl)c(C(C)NC(=O)c2cccc(OC)c2)cc1OCC (stereo not drawn)	728	1360	18.7	> 32	21	> 32	98	6.59
CCc1ccc(Nc2cc(C)c3ccc(O)cc3n2)cc1	194	16.1	3.72	12.2	11.9	4.32	98	7.77
Cc1cccc(N2C(=O)C3C(C2=O)C2(c4ccccc4)C(=O)C3(c3ccccc3)C(c3ccc4c(c3)OCO4)=C2c2ccc3c(c2)OCO3)c1 (stereo not drawn)	304	261	> 32	> 32	> 32	> 32	94	> 32
O=C1c2ccccc2-c2nnc(-c3ccc(Br)cc3)cc21	1070	798	> 32	> 32	> 32	> 32	99	> 32
Cc1ccc(C)c(Cn2c(N3CCC(C(=O)NCc4cccs4)CC3)nc3ccccc32)c1	1330	1670	8.64	6.9	3.86	17.3	97	> 32
CCOC(=O)C1=C(C)N=c2sc(=Cc3cc(Cl)ccc3O)c(=O)n2C1c1ccc(OC)cc1 (stereo not drawn)	489	490	14.1	14.2	4.15	16.2	97	16.6
COc1ccc(-n2ccnc2SCC(=O)Nc2cc(C)ccc2C)c(OC)c1	170	388	24.4	> 32	21	> 32	95	> 32
c1ccc2c(NCCCCCCNc3c4c(nc5ccccc35)CCCC4)c3c(nc2c1)CCCC3	376	1350	1.19	1.02	0.794	1.01	100	4.06
COc1cccc(O)c1CN1CCC2(CCCN(Cc3ccc(F)cc3)C2)C1 (stereo not drawn)	530	375	12.3	4.23	1.85	10.1	95	> 32
COc1cc(OC)c(N(C)C(=O)c2cc3c(s2)-c2ccccc2S(=O)(=O)C3)cc1Cl	78.2	93.6	15.7	16.2	4.36	21.5	100	> 32
CN(C)CCCNCc1ccc(-c2ccc(F)c(Cl)c2)o1	876	763	3.85	0.185	< 0.125	4.15	96	17.3
COc1ccc(-c2cc(=O)oc3c4c(ccc23)OCN(Cc2ccc(F)cc2)C4)cc1	735	294	13.2	15.8	11	5.38	96	> 32

The remaining compounds from weak to strong by EC50 (Plasmodium falciparum [2]), led by results:

EC50 (Plasmodium falciparum [2]) [nM]	EC50 (Plasmodium falciparum [3]) [nM]	IC50 (Trypanosoma cruzi) [µM]	IC50 [4] [µM]	IC50 [5] [µM]	IC50 (Leishmania infantum) [µM]	SMILES	inhibition at 5 µM (Plasmodium falciparum [1]) [%]	IC50 [6] [µM]
1170	1450	< 0.125	< 0.125	< 0.125	16.6	O=C(NC(c1ccccc1)c1ccc2cccnc2c1O)c1ccccc1 (stereo not drawn)	95	11.8
1110	986	25.9	> 32	22.5	> 32	COc1ccc(N2CCN(C(CNC(=O)C3CCCCC3)c3ccc4c(c3)OCO4)CC2)cc1 (stereo not drawn)	97	> 32
944	1290	> 32	16	14.4	> 32	Clc1ccc2c(N3CCCC3)ccnc2c1	97	> 32
697	1140	0.234	1	0.352	1.19	CC(C)OCc1cc(CN2CCN(c3cccc(Cl)c3)CC2)c(O)c2ncccc12	98	1.17
669	576	> 32	> 32	17.4	> 32	Cn1c(=O)c2cc(C(=O)NCCCN3CCCCCC3)sc2c2ccccc21	97	> 32
635	1130	> 32	> 32	> 32	> 32	Cc1ccc(CSCc2ccc(C(=O)NC3CC3)o2)cc1	97	> 32
326	285	4.91	3.38	2.75	4	Oc1ccc(-c2nc(-c3ccc4oc5ccc(-c6[nH]c(-c7ccc(O)cc7)nc6-c6ccccc6)cc5c4c3)c(-c3ccccc3)[nH]2)cc1	98	15.2
314	712	> 32	> 32	> 32	> 32	CCOC(=O)c1cnc2c(C)cccc2c1Nc1ccc(C(C)=O)cc1	94	> 32
300	569	3.27	0.97	1	0.841	Cc1cc(NCCN2CCCCC2)c2ccc3ccccc3c2n1	99	16.1
251	516	1.29	0.332	0.346	> 32	c1ccc2cc3c(Nc4ccc(N5CCOCC5)cc4)ccnc3cc2c1	97	> 32
206	562	0.25	0.931	0.272	0.336	CSc1ccccc1C(=O)Nc1nc(-c2ccccn2)cs1	98	2.78
148	188	> 32	> 32	> 32	> 32	COc1ccc(C2=C(c3ccc(OC)cc3)C3(c4ccccc4)C(=O)C2(c2ccccc2)C2C(=O)N(c4ccc(C)cc4)C(=O)C23)cc1 (stereo not drawn)	98	> 32
139	203	9.22	4.32	1.05	5.66	COc1cccc(NC(=O)[C@H](C(C)C)n2c(=O)[nH]c3ccccc3c2=O)c1	99	> 32
